Literature values as cited in patent US20220323308A1, “DISSOLVABLE VITAMIN C AND RETINOL FILM” (Mary Kay Inc., priority 2019, published 2022).

Settings: topical, when properly formulated

For `O=C1O[C@H]([C@@H](O)CO)C(O)=C1O` [ascorbic acid], the “enhancement of endogenous ascorbic acid levels in the skin” value is given as “up to twenty-fold”.
